The values that follow come from patent US9975878B2, “Substituted triazine BMI-1 inhibitors” (PTC Therapeutics, Inc., priority 2013, dated 2018).

In the assay the test system is Bmi-1 protein. Put plainly: Sandwich ELISA Assay: Bmi-1 protein level in HT-1080 cells treated with test compounds. It is filed as cell-based. The method, boiled down: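 HT-1080 cells exposed to compounds (final DMSO 0.5%) for 40-48 h at 37° C, 5% CO2, then lysed. Bmi-1 quantified by sandwich ELISA (mouse anti-Bmi-1 capture, rabbit anti-Bmi-1 detection, HRP anti-rabbit, TMB), read at OD450 with OD570 reference, against recombinant GST-Bmi-1 standard curve (0-8000 pg/mL).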
A general note: ELISA stands for enzyme-linked immunosorbent assay.
With `Cc1nc2ccccc2n1-c1nc(NCCO)nc(Nc2ccc3c(c2)OCO3)n1` [Cpd 19, 2-{[4-(1,3-benzodioxol-5-ylamino)-6-(2-methyl-1H-benzimidazol-1-yl)-1,3,5-triazin-2-yl]amino}ethanol], the half-maximal effective concentration (EC50) lay within 100 to 3000 nM.

Compound `Cc1nc2c(F)cc(F)cc2n1-c1nc(N)nc(Nc2ccc(Cl)cc2)n1` [Cpd 187, N-(4-chlorophenyl)-6-(4,6-difluoro-2-methyl-1H-benzimidazol-1-yl)-1,3,5-triazine-2,4-diamine] had a concentration giving a half-maximal response (EC50) of 100 to 3000 nM.

`Cc1ccc(Nc2nc(N)nc(-n3c(C4CC4)nc4cc(F)ccc43)n2)cc1` [Cpd 192, 6-(2-cyclopropyl-5-fluoro-1H-benzimidazol-1-yl)-N-(4-methylphenyl)-1,3,5-triazine-2,4-diamine] had a 50% effective concentration (EC50) of 1 to 10 nM.

For the compound `CCc1nc2c(F)cc(F)cc2n1-c1nc(N)nc(Nc2ccc(C)cc2)n1` [Cpd 189, 6-(2-ethyl-4,6-difluoro-1H-benzimidazol-1-yl)-N-(4-methylphenyl)-1,3,5-triazine-2,4-diamine], the EC50 is 10 to 100 nM.

`N#CCc1nc2ccccc2n1-c1nc(N)nc(Nc2ccc(C(F)(F)F)cc2)n1` [Cpd 119, [1-(4-amino-6-{[4-(trifluoromethyl)phenyl]amino}-1,3,5-triazin-2-yl)-1H-benzimidazol-2-yl]acetonitrile] registered a half-maximal effective concentration (EC50) of 100 to 3000 nM.

`Cc1nc2ccc(F)cc2n1-c1nc(N)nc(Nc2ccc(OC(F)F)c(F)c2)n1` [Cpd 29, N-[4-(difluoromethoxy)-3-fluorophenyl]-6-(6-fluoro-2-methyl-1H-benzimidazol-1-yl)-1,3,5-triazine-2,4-diamine]: the EC50 was 10 to 100 nM.

In turn, `CCc1nc2ccc(F)cc2n1-c1nc(N)nc(Nc2ccc(Cl)cc2)n1` [Cpd 170, N-(4-chlorophenyl)-6-(2-ethyl-6-fluoro-1H-benzimidazol-1-yl)-1,3,5-triazine-2,4-diamine] gave a 50% effective concentration (EC50) of 10 to 100 nM.

`FC(F)(F)c1ccc(Nc2cnnc(-n3c(C4CC4)nc4ccccc43)n2)cc1` [Cpd 101, 3-(2-cyclopropyl-1H-benzimidazol-1-yl)-N-[4-(trifluoromethyl)phenyl]-1,2,4-triazin-5-amine]: the EC50 was 10 to 100 nM.

`Cc1nc2c(F)cc(F)cc2n1-c1nc(N)nc(Nc2ccc(C(F)(F)F)cc2)n1` [Cpd 46, 6-(4,6-difluoro-2-methyl-1H-benzimidazol-1-yl)-N-[4-(trifluoromethyl)phenyl]-1,3,5-triazine-2,4-diamine] showed an EC50 of 100 to 3000 nM.

The compound `Cc1ccc(Nc2nc(N)nc(-n3c(C4CC4)nc4c(F)cccc43)n2)cc1` [Cpd 183, 6-(2-cyclopropyl-4-fluoro-1H-benzimidazol-1-yl)-N-(4-methylphenyl)-1,3,5-triazine-2,4-diamine] gave an EC50 of 10 to 100 nM.

`FC(F)Oc1ccc(Nc2cnnc(-n3c(C4CC4)nc4ccccc43)n2)cc1` [Cpd 113, 3-(2-cyclopropyl-1H-benzimidazol-1-yl)-N-[4-(difluoromethoxy)phenyl]-1,2,4-triazin-5-amine] gave a half-maximal effective concentration (EC50) of 10 to 100 nM.

Compound `CCc1nc2ccccc2n1-c1cnnc(Nc2ccc(C(F)(F)F)cc2)n1` [Cpd 124, 5-(2-ethyl-1H-benzimidazol-1-yl)-N-[4-(trifluoromethyl)phenyl]-1,2,4-triazin-3-amine] had an EC50 of 100 to 3000 nM.

Take `Cc1nc2ccc(F)cc2n1-c1nc(N)nc(Nc2ccc(OC(F)F)cc2)n1` [Cpd 28, N-[4-(difluoromethoxy)phenyl]-6-(6-fluoro-2-methyl-1H-benzimidazol-1-yl)-1,3,5-triazine-2,4-diamine]: the EC50 was in the range of 10 to 100 nM.

For the compound `Nc1nc(Nc2ccc(OC(F)F)nc2)nc(-n2c(CF)nc3ccccc32)n1` [Cpd 110, N-[6-(difluoromethoxy)pyridin-3-yl]-6-[2-(fluoromethyl)-1H-benzimidazol-1-yl]-1,3,5-triazine-2,4-diamine], the EC50 was 100 to 3000 nM.

As for `Cc1nc2ncc(Br)cc2n1-c1nc(N)nc(Nc2ccc(C(F)(F)F)cc2)n1` [Cpd 32, 6-(6-bromo-2-methyl-1H-imidazo[4,5-b]pyridin-1-yl)-N-[4-(trifluoromethyl)phenyl]-1,3,5-triazine-2,4-diamine], the half-maximal effective concentration (EC50) was in the range of 10 to 100 nM.

Consider `CCc1nc2cc(F)ccc2n1-c1nc(N)nc(Nc2ccc(C(F)(F)F)cc2)n1` [Cpd 58, 6-(2-ethyl-5-fluoro-1H-benzimidazol-1-yl)-N-[4-(trifluoromethyl)phenyl]-1,3,5-triazine-2,4-diamine], for which the EC50 was 10 to 100 nM.

As for `Nc1nc(Nc2ccc(C(F)(F)F)cc2)nc(-c2c(C(F)(F)F)nc3ccccn23)n1` [Cpd 61, 6-[2-(trifluoromethyl)imidazo[1,2-a]pyridin-3-yl]-N-[4-(trifluoromethyl)phenyl]-1,3,5-triazine-2,4-diamine], the EC50 was in the range of 10 to 100 nM.

Regarding `CCc1nc2c(F)cccc2n1-c1nc(N)nc(Nc2ccc(OC(F)F)cc2)n1` [Cpd 69, N-[4-(difluoromethoxy)phenyl]-6-(2-ethyl-4-fluoro-1H-benzimidazol-1-yl)-1,3,5-triazine-2,4-diamine], the 50% effective concentration (EC50) was in the range of 10 to 100 nM.

On to `Fc1ccc2nc(C3CC3)n(-c3ncnc(Nc4ccc(C(F)(F)F)cc4)n3)c2c1` [Cpd 76, 4-(2-cyclopropyl-6-fluoro-1H-benzimidazol-1-yl)-N-[4-(trifluoromethyl)phenyl]-1,3,5-triazin-2-amine], for which the EC50 lay within 100 to 3000 nM.

As to `CCc1nc2c(F)cccc2n1-c1nc(N)nc(Nc2ccc(Br)cc2)n1` [Cpd 216, N-(4-bromophenyl)-6-(2-ethyl-4-fluoro-1H-benzimidazol-1-yl)-1,3,5-triazine-2,4-diamine], the 50% effective concentration (EC50) was 1 to 10 nM.

With `CCc1nc2c(F)cccc2n1-c1nc(N)nc(Nc2ccc(C)cc2)n1` [Cpd 213, 6-(2-ethyl-4-fluoro-1H-benzimidazol-1-yl)-N-(4-methylphenyl)-1,3,5-triazine-2,4-diamine], the EC50 lay within 1 to 10 nM.

Regarding `Cc1nc2ccc(F)cc2n1-c1nc(N)nc(Nc2ccc(Br)cc2)n1` [Cpd 211, N-(4-bromophenyl)-6-(6-fluoro-2-methyl-1H-benzimidazol-1-yl)-1,3,5-triazine-2,4-diamine], the EC50 fell in the range of 10 to 100 nM.

Consider `Nc1nc(Nc2ccc(Br)cc2)nc(-n2c(C3CC3)nc3ccccc32)n1` [Cpd 224, N-(4-bromophenyl)-6-(2-cyclopropyl-1H-benzimidazol-1-yl)-1,3,5-triazine-2,4-diamine], for which the EC50 lay within 1 to 10 nM.

The compound `Cc1nc2ccc(Cl)cc2n1-c1nc(N)nc(Nc2ccc(C(F)(F)F)cc2)n1` [Cpd 75, 6-(6-chloro-2-methyl-1H-benzimidazol-1-yl)-N-[4-(trifluoromethyl)phenyl]-1,3,5-triazine-2,4-diamine] had an EC50 of 10 to 100 nM.

Compound `CCc1nc2c(F)cc(F)cc2n1-c1nc(N)nc(Nc2ccc(C(F)(F)F)cc2)n1` [Cpd 45, 6-(2-ethyl-4,6-difluoro-1H-benzimidazol-1-yl)-N-[4-(trifluoromethyl)phenyl]-1,3,5-triazine-2,4-diamine] registered a half-maximal effective concentration (EC50) of 10 to 100 nM.

For the compound `CCc1nc2c(F)cccc2n1-c1nc(N)nc(Nc2ccc(OC)cc2)n1` [Cpd 212, 6-(2-ethyl-4-fluoro-1H-benzimidazol-1-yl)-N-(4-methoxyphenyl)-1,3,5-triazine-2,4-diamine], the EC50 lay within 1 to 10 nM.

Take `CCc1nc2ccccc2n1-c1nc(N)nc(Nc2ccc(OC(F)F)cc2)n1` [Cpd 31, N-[4-(difluoromethoxy)phenyl]-6-(2-ethyl-1H-benzimidazol-1-yl)-1,3,5-triazine-2,4-diamine]: the EC50 fell in the range of 10 to 100 nM.

`Cc1nc2ccccc2n1-c1nnc(N)c(Nc2ccc(C(F)(F)F)cc2)n1` [Cpd 143, 3-(2-methyl-1H-benzimidazol-1-yl)-N^5-[4-(trifluoromethyl)phenyl]-1,2,4-triazine-5,6-diamine] came in with an EC50 of 100 to 3000 nM.

`COc1ccc(Nc2nc(N)nc(-n3c(C4CC4)nc4ccc(F)cc43)n2)cc1` [Cpd 176, 6-(2-cyclopropyl-6-fluoro-1H-benzimidazol-1-yl)-N-(4-methoxyphenyl)-1,3,5-triazine-2,4-diamine]: the half-maximal effective concentration (EC50) is 10 to 100 nM.

Take `Cc1nc2ccccc2n1-c1nc(N)nc(Nc2cnc3ccccc3c2)n1` [Cpd 20, 6-(2-methyl-1H-benzimidazol-1-yl)-N-(quinolin-3-yl)-1,3,5-triazine-2,4-diamine]: the EC50 was in the range of 1 to 10 nM.

With `Cc1ccc(Nc2nc(N)nc(-n3c(C)nc4cc(F)c(F)cc43)n2)cc1` [Cpd 195, 6-(5,6-difluoro-2-methyl-1H-benzimidazol-1-yl)-N-(4-methylphenyl)-1,3,5-triazine-2,4-diamine], the EC50 fell in the range of 10 to 100 nM.

With `CCc1nc2ccc(F)cc2n1-c1nc(N)nc(Nc2ccc(OC(F)F)cc2)n1` [Cpd 56, N-[4-(difluoromethoxy)phenyl]-6-(2-ethyl-6-fluoro-1H-benzimidazol-1-yl)-1,3,5-triazine-2,4-diamine], the EC50 is 10 to 100 nM.

The compound `Cc1nc2ccccc2n1-c1nc(N)nc(Nc2ccc(C(F)(F)F)cc2)n1` [Cpd 2, 6-(2-methyl-1H-benzimidazol-1-yl)-N-[4-(trifluoromethyl)phenyl]-1,3,5-triazine-2,4-diamine] yielded a concentration giving a half-maximal response (EC50) of 10 to 100 nM.

For the compound `Nc1nc(Nc2ccc(C(F)(F)F)cc2)nc(-n2c(C3CC3)nc3c(F)cc(F)cc32)n1` [Cpd 88, 6-(2-cyclopropyl-4,6-difluoro-1H-benzimidazol-1-yl)-N-[4-(trifluoromethyl)phenyl]-1,3,5-triazine-2,4-diamine], the half-maximal effective concentration (EC50) was 10 to 100 nM.

With `CCc1nc2c(F)cc(F)cc2n1-c1nc(N)nc(Nc2ccc(Cl)c(F)c2)n1` [Cpd 200, N-(4-chloro-3-fluorophenyl)-6-(2-ethyl-4,6-difluoro-1H-benzimidazol-1-yl)-1,3,5-triazine-2,4-diamine], the half-maximal effective concentration (EC50) was 100 to 3000 nM.

`CCc1nc2ccccc2n1-c1nc(N)nc(Nc2ccc(Br)cc2)n1` [Cpd 207, N-(4-bromophenyl)-6-(2-ethyl-1H-benzimidazol-1-yl)-1,3,5-triazine-2,4-diamine] gave an EC50 of 1 to 10 nM.

For `Cc1ccc(Nc2nc(N)nc(-n3c(C4CC4)nc4ccccc43)n2)cc1` [Cpd 155, 6-(2-cyclopropyl-1H-benzimidazol-1-yl)-N-(4-methylphenyl)-1,3,5-triazine-2,4-diamine], the 50% effective concentration (EC50) lay within 1 to 10 nM.

Broadly, the EC50 is the midpoint of the concentration-response curve.
